According to patent publication US20040171543A1, “Matrix metalloproteinase inhibitors and methods for identification of lead compounds” (priority 2002, published 2004):

Key:
Format in all cases: biochemical
MMP-2 full length (2FL) = target: T1, MMP-2 full length (2FL) (Homo sapiens, UniProt P08253); test: Fluorigenic peptide-1 substrate based assay, MMP-2, with/without AcNHOH
T1 sequence (P08253 110-660): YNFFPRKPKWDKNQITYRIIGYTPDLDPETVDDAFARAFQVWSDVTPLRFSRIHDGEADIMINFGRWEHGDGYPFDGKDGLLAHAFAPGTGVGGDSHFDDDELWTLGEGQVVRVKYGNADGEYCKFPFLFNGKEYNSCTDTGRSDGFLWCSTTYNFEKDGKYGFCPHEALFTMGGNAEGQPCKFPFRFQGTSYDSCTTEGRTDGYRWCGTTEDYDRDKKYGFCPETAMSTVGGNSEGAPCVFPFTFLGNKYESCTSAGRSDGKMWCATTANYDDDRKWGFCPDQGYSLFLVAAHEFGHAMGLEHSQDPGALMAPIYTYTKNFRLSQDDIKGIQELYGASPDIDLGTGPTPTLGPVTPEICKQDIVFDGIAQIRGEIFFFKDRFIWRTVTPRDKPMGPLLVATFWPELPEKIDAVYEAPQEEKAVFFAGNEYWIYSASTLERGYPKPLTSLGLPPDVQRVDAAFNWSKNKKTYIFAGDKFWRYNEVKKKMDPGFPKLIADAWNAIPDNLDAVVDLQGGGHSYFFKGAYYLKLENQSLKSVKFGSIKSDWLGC

[1] = target: T2, MMP-13 catalytic domain (MMP-13CD) (Homo sapiens, UniProt P45452); test: Fluorigenic peptide-1 substrate based assay, MMP-13CD, with/without AcNHOH; conditions: IC50 with AcNHOH divided by IC50 without, listed as drawing 47
T2 construct: The catalytic domain of the MMP-13 enzyme, namely matrix metalloproteinase-13 catalytic domain (“MMP-13CD”)
Description: The catalytic domain of the MMP-13 enzyme, namely matrix metalloproteinase-13 catalytic domain (“MMP-13CD”), rather than the corresponding full-length enzyme, MMP-13 was used in such assay.
50 mM HEPES buffer (pH 7.0)
2% DMSO (with or without inhibitor test compound)
1. Dispensed 2 μL inhibitor test sample (in 100% DMSO) into well.
2. Added 88 μL assay mixture and mixed well, avoiding bubbles.
3. Initiated reactions with 10 μL of 5 nM MMP-13CD; mixed well, avoiding bubbles.
4. Immediately measured the kinetics of the reactions at room temperature.
Alternatively, an endpoint read can also be used to determine reaction velocity provided the initial fluorescence of the solution, as recorded before addition of enzyme, is subtracted from the final fluorescence of the reaction mixture.

MMP-2 = target: T3, MMP-2 (Homo sapiens, UniProt P08253); test: Steady-state kinetics of the mechanism of inhibition of MMP-2; conditions: 6 inhibitor concentrations 0 to 600 nanomolar, FIG. 8
T3 sequence (P08253 110-660): T1 sequence (P08253 110-660)
Excerpt: In FIG. 8, 1 over the initial velocity Vo, which is the initial rate of product formation in a steady state kinetics assay, is plotted on the Y-axis versus 1 over concentration of substrate [S] used in the assay on the X-axis for inhibition of MMP-2 with N-[(3-phenylisoxazol-5-ylmethyl)-aminothiocarbonyl]-benzamide at 6 concentrations of from 0 nanomolar to 600 nanomolar.

MMP-9 full length (9FL) = target: T4, MMP-9 full length (9FL) (Homo sapiens, UniProt P14780); test: Fluorigenic peptide-1 substrate based assay, MMP-9, with/without AcNHOH
T4 construct: purchased Calbiochem; host or cells: stimulated neutrophils
Excerpt: MMP-9 may be obtained from commercial sources. For example, full-length pro-MMP-9 purified from stimulated neutrophils is available from Calbiochem.

T4 sequence (P14780 107-707 limits assumed): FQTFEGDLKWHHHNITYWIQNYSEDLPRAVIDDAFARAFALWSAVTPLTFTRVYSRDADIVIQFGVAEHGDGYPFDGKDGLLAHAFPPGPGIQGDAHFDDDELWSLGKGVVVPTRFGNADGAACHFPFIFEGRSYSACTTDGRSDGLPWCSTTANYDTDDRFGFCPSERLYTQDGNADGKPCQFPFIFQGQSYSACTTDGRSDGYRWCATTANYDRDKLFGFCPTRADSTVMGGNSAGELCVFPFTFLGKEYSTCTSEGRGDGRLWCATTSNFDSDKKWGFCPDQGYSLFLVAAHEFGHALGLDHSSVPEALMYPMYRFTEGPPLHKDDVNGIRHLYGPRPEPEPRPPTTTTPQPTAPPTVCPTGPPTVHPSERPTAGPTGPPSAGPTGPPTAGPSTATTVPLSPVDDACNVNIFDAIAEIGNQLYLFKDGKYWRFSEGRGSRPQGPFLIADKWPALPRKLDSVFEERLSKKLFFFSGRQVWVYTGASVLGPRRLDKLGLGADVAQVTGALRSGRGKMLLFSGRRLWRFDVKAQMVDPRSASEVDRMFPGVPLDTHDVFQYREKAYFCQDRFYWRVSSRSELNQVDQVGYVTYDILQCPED

IC50 Ratio (±) (MMP-2 full length (2FL)): 0.10 | IC50 Ratio (±) [1]: 0.09 | Mechanism of inhibition of MMP-2 (MMP-2): uncompetitive inhibitor | IC50 Ratio (±) (MMP-9 full length (9FL)): 0.39
Compound: O=C(NC(=S)NCc1cc(-c2ccccc2)no1)c1ccccc1 [N-[(3-phenylisoxazol-5-ylmethyl)-aminothiocarbonyl]-benzamide]
